Measurements from patent US12678419B2, “Compounds” (Sitryx Therapeutics Limited, priority 2020, dated 2026).
Values joined by “and” are separate entries in the source; they are usually repeats but may differ in a detail not shown here. Equal values may be shown once. Where a name gives a salt, the structure may show the parent alone.

Assays:
[1] = Hepatocyte stability assay, human; type: in vitro ADME; conditions: human, cryopreserved hepatocytes, 10 μM compound, read-out: T½
Description: (§1) Defrosted cryo-preserved hepatocytes (viability >70%) were used to determine the metabolic stability of a compound via calculation of intrinsic clearance (Clint; a measure of the removal of a compound from the liver in the absence of blood flow and cell binding). Clearance data are particularly important for in vitro work as they can be used in combination with in vivo data to predict the half-life and oral bioavailability of a drug.
(§2) The metabolic stability in hepatocytes assay involves a time-dependent reaction using both positive and negative controls. The cells were pre-incubated at 37° C. and spiked with test compound (and positive control); samples were taken at pre-determined time intervals were analysed to monitor the change in concentration of the initial drug compound over 60 minutes. A buffer incubation reaction (with no hepatocytes present) acted as a negative control and two cocktail solutions, containing compounds with known high and low clearance values (verapamil/7-hydroxycoumarin and propranolol/diltiazem), acted as positive controls. • 1. The assay was run with a cell concentration of 0.5×10^6 cells/mL in Leibovitz buffer. • 2. All compounds and controls were run in duplicate. • 3. Compound concentration was 10 μM. • 4. All compounds and controls were incubated with both cells and buffer to show turnover was due to hepatic metabolism. • 5. All wells on the incubation plate had 326.7 μL of either cells or buffer added. • 6. Prior to assay, cell and buffer-only incubation plates were preincubated for 10 mins at 37° C. • 7. The assay was initiated by adding compounds, 3.3 μL of 1 mM in 10% DMSO-90% Buffer; final DMSO concentration was 0.1%. • 8. Samples were taken at regular timepoints (0, 5, 10, 20, 40, 60 min) until 60 mins. • 9. Sample volume was 40 μL and was added to 160 μL of crash solvent (acetonitrile with internal standard) and stored on ice. • 10. At the end of the assay, the crash plates were centrifuged at 3500 rpm for 20 mins at 4° C. • 11. 80 μL of clear supernatant was removed and mixed with 80 μL of deionised water before being analysed by LC-MS/MS.
(§3) Raw LC-MS/MS data was exported to, and analysed in, Microsoft Excel for determination of intrinsic clearance. The percentage remaining of a compound was monitored using the peak area of the initial concentration as 100%. Intrinsic clearance and half-life values were calculated using a graph of the natural log of percentage remaining versus the time of reaction in minutes. Half-life (min) and intrinsic clearance (Clint in μL min^−1 10^−6 cells) values were calculated using the gradient of the graph (the elimination rate constant, k) and Equations 1 and 2.

human hepatocytes = experiment: Hepatocyte stability assay, human; type: in vitro ADME; conditions: 10 μM compound
Description: as §1, §2, §3

[2] = test system: IL-1β cytokine output from THP-1s; experiment: THP-1 AlphaLISA IL-1β cytokine assay; type: cell-based; conditions: LPS then nigericin, Table 1
Description: (§4) The cytokine inhibition profiles of compounds of formula (I) were determined in a differentiated THP-1 cell assay. All assays were performed in RPMI-1640 growth medium (Gibco), supplemented with 10% fetal bovine serum (FBS; Gibco), 1% penicillin-streptomycin and 1% sodium pyruvate unless specified otherwise. The IL-1β and IL-6 cytokine inhibition assays were each run in a background of differentiated THP-1 cells as described below. All reagents described were from Sigma-Aldrich unless specified otherwise. Compounds were prepared as 10 mM DMSO stocks.
(§5) THP-1 cells were expanded as a suspension up to 80% confluence in appropriate growth medium. Cells were harvested, suspended, and treated with an appropriate concentration of phorbol 12-myristate 13-acetate (PMA) over a 72 hr period (37° C./5% CO2).
(§6) Following 72 hrs of THP-1 cell incubation, cellular medium was removed and replaced with fresh growth media containing 1% of FBS. Working concentrations of compounds were prepared separately in 10% FBS treated growth medium and pre-incubated with the cells for 30 minutes (37° C./5% CO2). Following the 30 minute compound pre-incubation, THP-1s were treated with an appropriate concentration of LPS and the THP-1s were subsequently incubated for a 24 hr period (37° C./5% CO2). An appropriate final concentration of Nigericin was then dispensed into the THP-1 plates and incubated for 1 hour (37° C./5% CO2) before THP-1 supernatants were harvested and collected in separate polypropylene 96-well holding plates.
(§7) Reagents from each of the IL-1β and IL-6 commercial kits (Perkin Elmer) were prepared and run according to the manufacturer's instructions. Subsequently, fluorescence signal detection in a microplate reader was measured (EnVision® Multilabel Reader, Perkin Elmer).
(§8) Percentage inhibition was calculated per cytokine by normalising the sample data to the high and low controls used within each plate (+/− LPS respectively). Percentage inhibition was then plotted against compound concentration and the 50% inhibitory concentration (IC50) was determined from the resultant concentration-response curve.

[3] = test system: NRF2 (nuclear factor erythroid 2-related factor 2); experiment: NRF2 +/-GSH activation assay (DiscoverX PathHunter NRF2 translocation kit, U2OS cells); type: cell-based; conditions: for Emax (%) +GSH / Emax (%) −GSH: normalised to dimethyl fumarate high control
mouse hepatocytes = experiment: Hepatocyte stability assay, mouse; type: in vitro ADME; conditions: 10 μM compound
Description: as §1, §2, §3

[4] = test system: IL-6 cytokine output from THP-1s; experiment: THP-1 AlphaLISA IL-6 cytokine assay; type: cell-based; conditions: LPS then nigericin, Table 1
Description: as §4, §5, §6, §7, §8

[5] = Homo sapiens, THP-1, differentiated THP-1 cells

Row | Structure (SMILES) | half-life at 10 μM [1] [h] | Clint (μL min^−1 10^−6 cells) (human hepatocytes) | IC50 [2, 5] [µM] | EC50 ([3]; +GSH) | Emax (%) +GSH ([3]; +GSH) | EC50 ([3]; −GSH) | Emax (%) −GSH ([3]; −GSH) | Clint (μL min^−1 10^−6 cells) (mouse hepatocytes) | T½ (mouse hepatocytes) [h] | IC50 [4, 5] [µM] | T½ (human hepatocytes) [h] | IC50 ([2]; differentiated THP-1 cells) [µM] | IC50 ([4]; differentiated THP-1 cells) [µM]
1 | C=C(CC(=O)OC1CCc2c(Cl)cc(Cl)cc21)C(=O)OCC(=O)O (single isomer, unassigned; enantiomer 1) [Example 2, 2-((4-((4,6-dichloro-2,3-dihydro-1H-inden-1-yl)oxy)-2-methylene-4-oxobutanoyl)oxy)acetic acid (Enantiomer 1)] | 1.93 | 13 | 4 | 11.4 µM | 166% | 9 µM | 196% | 51 | 0.617 | 4.3 |  |  | 
2 | C=C(CC(=O)OC1CCc2cc(Cl)c(Cl)cc21)C(=O)OCC(=O)O (single isomer, unassigned; enantiomer 1) [Example 5, 2-((4-((5,6-dichloro-2,3-dihydro-1H-inden-1-yl)oxy)-2-methylene-4-oxobutanoyl)oxy)acetic acid (Enantiomer 1)] | 2.33 | 11 | 12.3 | 19.5 µM | 246% | 10.8 µM | 280% | 431 | 0.05 |  |  |  | 
3 | C=C(CC(=O)OC1CCc2c(Br)cc(F)cc21)C(=O)OCC(=O)O (single isomer, unassigned; enantiomer 1) [Example 15, 2-((4-((4-bromo-6-fluoro-2,3-dihydro-1H-inden-1-yl)oxy)-2-methylene-4-oxobutanoyl)oxy)acetic acid (Enantiomer 1)] | 2.75 | 9 | 2.4 |  |  |  |  | 51 | 0.4 |  |  |  | 
4 | C=C(CC(=O)OC1CCc2c(Cl)cc(Cl)cc21)C(=O)OCC(=O)O (single isomer, unassigned; enantiomer 2) [Example 3, 2-((4-((4,6-dichloro-2,3-dihydro-1H-inden-1-yl)oxy)-2-methylene-4-oxobutanoyl)oxy)acetic acid (Enantiomer 2)] |  | 16 |  | 15.8 µM | 211% | 9.8 µM | 229% | >460 | <0.05 |  | 1.55 | 5.6 | 3.6
5 | C=C(CC(=O)OC1CCc2c(Cl)cc(F)cc21)C(=O)OCC(=O)O (single isomer, unassigned; enantiomer 2) [Example 20, 2-((4-((4-chloro-6-fluoro-2,3-dihydro-1H-inden-1-yl)oxy)-2-methylene-4-oxobutanoyl)oxy)acetic acid (Enantiomer 2)] |  | 11 |  | 31.8 µM | 155% | 12.9 µM | 234% | >460 | <0.05 | 3.9 | 2.08 | 1.4 | 
6 | C=C(CC(=O)OC1CCCc2c(Cl)cc(Cl)cc21)C(=O)OCC(=O)O (single isomer, unassigned; enantiomer 2) [Example 25, 2-((4-((5,7-dichloro-1,2,3,4-tetrahydronaphthalen-1-yl)oxy)-2-methylene-4-oxobutanoyl)oxy)acetic acid (Enantiomer 2)] |  | 29 |  | 10.6 µM | 147% | 6 µM | 205% | >460 | <0.05 |  | 0.967 | 4.8 | 6.2
7 | C=C(CC(=O)OC1CCc2cc(C(F)(F)F)ccc21)C(=O)OCC(=O)O (single isomer, unassigned; enantiomer 2) [Example 29, 2-((2-methylene-4-oxo-4-((5-(trifluoromethyl)-2,3-dihydro-1H-inden-1-yl)oxy)butanoyl)oxy)acetic acid (Enantiomer 2)] |  | 10 |  | 18.7 µM and 25.9 µM | 141% and 175% | 5.9 µM and 11.5 µM | 147% and 211% | 92 | 0.283 |  | 2.53 | 11.4 | 5.8
8 | C=C(CC(=O)OC1CCc2ccc(OC(F)(F)F)cc21)C(=O)OCC(=O)O (single isomer, unassigned; enantiomer 2) [Example 30, 2-((2-methylene-4-oxo-4-((6-(trifluoromethoxy)-2,3-dihydro-1H-inden-1-yl)oxy)butanoyl)oxy)acetic acid (Enantiomer 2)] |  | 19 |  | 28.7 µM | 182% | 21.6 µM | 225% | 393 | 0.067 |  | 1.35 | 7.9 | 20.6
9 | COC(=O)/C=C/C(=O)OC [dimethyl fumarate, reference compound] |  |  | 14.4 | > 100 µM | 19% | 6 µM | 100% |  |  | 9.3 |  |  | 
